What was measured:
[1] = target: PK R510Q (Homo sapiens, UniProt P30613, R510Q); assay: PKR Mutant Assay (R510Q), LDH-coupled, absorbance 340 nm; assay type: biochemical; conditions: mutant PKR R510Q enzyme activation
Method: (§1) PKR (WT or mutant) enzyme stock solution was diluted to prepare a 1.25× Reaction Mix (without ADP). 1 μL of test compound was first added to the wells followed by 40 μL of 1.25× Reaction Mix (without ADP) and incubated at room temperature (25° C.) for 60 min. The reaction was initiated with 10 μL ADP, bringing the final Reaction Mix to 1x, and the reaction progress was measured as changes in absorbance at 340 nm wavelength at room temperature.
(§2) Test compound preparation: Test compounds were prepared at 50× final concentration in DMSO. 1 to 3 dilutions were made for 11 points (for example 50 μL of 5000 μM compound was added to 100 μL 100% DMSO to yield a 1667 μM, 50 μL of this added to 100 μL DMSO to yield 556 μM, and so forth). The compounds were added to the assay as a 1 to 50 dilution (1 μL in 50 μL) to yield a top concentration of 100 μM, decreasing 3-fold for 11 points.
(§3) Reaction Mix: PKR (1.25-1000 ng/well, 0.025-20 μg/ml depending on the PKR mutant), ADP (0.05-2.3 mM depending on the PKR mutant), PEP (0.031-2 mM depending on the PKR mutant), NADH (180 μM), LDH (0.005 U/μL, Sigma #L3888), 1 mM DTT, 0.03% BSA in 1× Reaction Buffer
(§4) Reaction Buffer: 100 mM KCl, 50 mM Tris pH 7.5, 5 mM MgCl2.

[2] = target: PKM2 WT (Homo sapiens, UniProt P14618); assay: PKM2 Assay, LDH-coupled, absorbance 340 nm; assay type: biochemical; conditions: wild type PKM2 enzyme activation
PKM2 WT, sequence (P14618 whole entry): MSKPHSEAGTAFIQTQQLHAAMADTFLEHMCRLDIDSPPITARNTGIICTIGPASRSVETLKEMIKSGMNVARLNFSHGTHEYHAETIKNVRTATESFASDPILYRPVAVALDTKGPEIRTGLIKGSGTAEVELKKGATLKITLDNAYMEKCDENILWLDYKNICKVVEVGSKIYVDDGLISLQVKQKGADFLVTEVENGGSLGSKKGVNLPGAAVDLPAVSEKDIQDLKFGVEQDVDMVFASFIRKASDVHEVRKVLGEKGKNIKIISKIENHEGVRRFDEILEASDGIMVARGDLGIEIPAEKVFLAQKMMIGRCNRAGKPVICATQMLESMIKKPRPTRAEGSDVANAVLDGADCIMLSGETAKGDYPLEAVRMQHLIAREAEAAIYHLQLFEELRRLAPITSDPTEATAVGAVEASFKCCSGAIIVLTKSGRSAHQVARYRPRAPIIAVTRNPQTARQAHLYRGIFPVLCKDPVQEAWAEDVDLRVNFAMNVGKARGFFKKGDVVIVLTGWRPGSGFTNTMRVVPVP
Method: as §1, with “PKM2” for “PKR (WT or mutant)”, “ADP (0.4 mM final concentration),” for “ADP,”
as §2
Reaction Mix: PKM2 (5 ng/well, 0.1 μg/ml), ADP (0.4 mM), PEP (0.11 mM), NADH (180 μM), LDH (0.005 U/μL, Sigma #L3888), 1 mM DTT, 0.03% BSA in 1×
as §4

[3] = target: PKR WT (Homo sapiens, UniProt P30613); assay: PKR enzyme assay (WT), LDH-coupled, absorbance 340 nm; assay type: biochemical; conditions: wild type PKR enzyme activation
PKR WT, sequence (P30613 whole entry): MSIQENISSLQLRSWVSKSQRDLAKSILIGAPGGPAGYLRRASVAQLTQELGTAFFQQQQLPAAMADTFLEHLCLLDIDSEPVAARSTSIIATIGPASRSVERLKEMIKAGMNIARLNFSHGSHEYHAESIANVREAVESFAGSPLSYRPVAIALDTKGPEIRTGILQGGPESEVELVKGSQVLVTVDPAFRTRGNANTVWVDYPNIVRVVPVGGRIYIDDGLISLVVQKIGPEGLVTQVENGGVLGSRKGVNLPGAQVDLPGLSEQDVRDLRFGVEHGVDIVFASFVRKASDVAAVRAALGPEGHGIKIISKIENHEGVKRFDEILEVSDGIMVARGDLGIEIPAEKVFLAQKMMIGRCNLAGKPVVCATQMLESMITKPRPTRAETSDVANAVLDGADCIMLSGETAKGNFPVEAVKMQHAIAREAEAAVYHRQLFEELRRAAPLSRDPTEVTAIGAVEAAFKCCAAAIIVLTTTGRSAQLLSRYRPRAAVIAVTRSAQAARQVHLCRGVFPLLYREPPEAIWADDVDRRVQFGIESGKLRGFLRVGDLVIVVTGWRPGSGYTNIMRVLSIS
Method: as §1, §2, §3, §4

[4] = target: PKR K410E (Homo sapiens, UniProt P30613, K410E); assay: PKR Mutant Assay (K410E), LDH-coupled, absorbance 340 nm; assay type: biochemical; conditions: mutant PKR K410E enzyme activation
PKR K410E, sequence (P30613 whole entry K410E): as the sequence (P30613 whole entry) above, with K410E counted along it
Method: as §1, §2, §3, §4

[5] = test system: RBCs; assay: Cell Based ATP Assay in purified red blood cells (Cell-Titer-Glo); set-up: species or system human; conditions: wild type PKR, ATP levels in RBCs, overnight at 37° C.; for AC50: Homo sapiens, Erythrocyte
Method: Fresh blood drawn from healthy volunteers into K2EDTA tubes was collected. Whole blood was pelleted by spinning at 500 g for 10 minutes. The transfusion bag port was cut off Purecell leukocyte reduction neofilter (Fisher NC0267633) one (1) inch above filter. A 10 ml syringe barrel was attached to the remaining cut tubing attached to the neofilter. The plasma layer was removed from the pellet of the whole blood and the pellet was resuspended in 2× volume of phosphate buffered saline (PBS). 9 ml re-suspended blood cell pellet was transferred to a 10 ml syringe that was attached to the neofilter. The whole blood was allowed to gravity flow through filter until all fluid ran through upper tubing into a filter disc. The plunger was added to the syringe. The filter was inverted and air was plunged through the syringe filter system. A new 5 ml syringe was used to remove filtered RBCs from the bag by the syringe port. Purified RBCs were transferred to a 5 ml snap cap tube that had been incubated on ice. The 5 ml snap cap tube was spun at 500 g for 10 minutes at 15 C. Supernatant was aspirated and resuspended in AGAM (1×PBS, 1% glucose, 170 mg/L adenine, 5.25 g/L mannitol) at a density of 4×10^9 cells/mL.
For cell based ATP assays, the compound as described herein was prepared in 100% DMSO as a 10 mM stock. Serial dilutions (1:4) were performed in 96-well V-bottom storage plate and then added 1:100 to 96-well V-bottom plates containing AGAM. 10 μL/well of compound diluted in AGAM was added to black clear bottom assay plates. RBCs were diluted in AGAM media to a density of 1×10^7 cells/mL before added 90 μL/well to black clear bottom assay plates (final compound concentration at 0.1% DMSO concentration). Assay plates were sealed using aluminum foil seals and incubated overnight at 37° C. in a humidified chamber. ATP levels were read out using Cell-Titer-Glo (Promega).

PK R510Q, sequence (P30613 whole entry R510Q): as the sequence (P30613 whole entry) above, with R510Q counted along it

| Structure (SMILES) | AC50 [1] [nM] | AC50 [2] [nM] | AC50 [3] [nM] | AC50 [4] [nM] | PK R510Q AC50 [1] | PKR WT AC50 [3] | PKR K410E AC50 [4] | AC50 [5] [nM] | Cell based ATP assay AC50 [5] |
| --- | --- | --- | --- | --- | --- | --- | --- | --- | --- |
| COc1cccc(Cn2ncc3c4cc(C(F)(F)F)ccc4n(C)c3c2=O)c1 [Cpd 63] | > 800 | > 800 | > 800 | > 800 |  |  |  |  |  |
| COc1cccc(Cn2ncc3c4cccc(Br)c4n(C)c3c2=O)c1 [Cpd 33] |  |  |  |  | No Fit | No Fit | Inhibition |  |  |
| Cn1cc(S(=O)(=O)c2ccc3c(c2)c2cnn(Cc4cccc(C(N)=O)c4)c(=O)c2n3C)cn1 [Cpd 55] | < 300 |  | 301 to 800 | < 300 |  |  |  | > 1000 |  |
| COC(=O)c1ccc2c3cnn(Cc4cccc(OC)c4)c(=O)c3n(C)c2c1 [Cpd 40] |  |  |  | < 300 | No Fit | No Fit |  |  |  |
| Cn1c2cc(Cc3cn[nH]c3)sc2c2cnn(Cc3cccc4[nH]ncc34)c(=O)c21 [Cpd 8] | < 300 |  | < 300 |  |  |  | No Fit | ≤ 1000 |  |
| COc1cccc(Cn2ncc3c4ccc(C#N)cc4n(C)c3c2=O)c1 [Cpd 47] | < 300 |  | 301 to 800 | < 300 |  |  |  |  |  |
| COc1cccc(Cn2ncc3c4ccncc4n(C)c3c2=O)c1 [Cpd 64] | < 300 |  | 301 to 800 | 301 to 800 |  |  |  |  |  |
| Cn1c2cc(S(C)(=O)=O)ccc2c2cnn(Cc3cccc(C(N)=O)c3)c(=O)c21 [Cpd 53] | < 300 |  | 301 to 800 | 301 to 800 |  |  |  | > 1000 |  |
| Cn1c2cc(Cc3cscn3)sc2c2cnn(Cc3ccccn3)c(=O)c21 [Cpd 7] | < 300 |  | < 300 | < 300 |  |  |  | ≤ 1000 |  |
| COc1cccc(Cn2ncc3c4nn(Cc5ccccc5)cc4n(C)c3c2=O)c1 [Cpd 28] | < 300 |  | 301 to 800 | 301 to 800 |  |  |  |  |  |
| Cn1c2cc(Cc3cccc4cn[nH]c34)sc2c2cnn(Cc3cscn3)c(=O)c21 [Cpd 6] | < 300 |  | < 300 | < 300 |  |  |  | ≤ 1000 |  |
| Cn1c2ccc(S(=O)(=O)c3ccccc3)cc2c2cnn(Cc3cccc(C(N)=O)c3)c(=O)c21 [Cpd 57] | < 300 |  | 301 to 800 | > 800 |  |  |  | > 1000 |  |
| COc1cccc(Cn2ncc3c4c(cnn4C)n(C)c3c2=O)c1 [Cpd 27] |  |  |  |  | No Fit | No Fit | No Fit |  |  |
| Cn1cc(S(=O)(=O)c2ccc3c4cnn(Cc5cccc(C(N)=O)c5)c(=O)c4n(C)c3c2)cn1 [Cpd 56] | < 300 |  | 301 to 800 | < 300 |  |  |  | > 1000 |  |
| Cn1c2cc(S(=O)(=O)c3ccccc3)ccc2c2cnn(Cc3cccc(C(N)=O)c3)c(=O)c21 [Cpd 54] | < 300 |  | 301 to 800 | < 300 |  |  |  | > 1000 |  |
| Cn1c2cc(S(=O)(=O)c3cc[nH]n3)ccc2c2cnn(Cc3cccc(C(N)=O)c3)c(=O)c21 [Cpd 50] | < 300 |  | 301 to 800 | > 800 |  |  |  | > 1000 |  |
| Cc1cccc(Cn2ncc3c4sc(Cc5ncco5)cc4n(C)c3c2=O)c1 [Cpd 5] | < 300 |  | < 300 | < 300 |  |  |  | ≤ 1000 |  |
| Cn1c2ccc(S(=O)(=O)c3cc[nH]n3)cc2c2cnn(Cc3cccc(C(N)=O)c3)c(=O)c21 [Cpd 49] | < 300 |  | < 300 | < 300 |  |  |  | ≤ 1000 |  |
| COc1cccc(Cn2ncc3c(c(C(N)=O)n4cc(C)sc34)c2=O)c1 [Cpd 12] | < 300 |  | < 300 | < 300 |  |  |  | > 1000 |  |
| COc1cccc(Cn2ncc3c(c(C(F)(F)F)n4cc(C)sc34)c2=O)c1 [Cpd 10] |  |  | < 300 |  | No Fit |  | No Fit |  | No Fit |

Second part, led by results:

| AC50 [1] [nM] | AC50 [2] [nM] | AC50 [3] [nM] | AC50 [4] [nM] | PK R510Q AC50 [1] | PKR WT AC50 [3] | PKR K410E AC50 [4] | Structure (SMILES) | AC50 [5] [nM] | Cell based ATP assay AC50 [5] |
| --- | --- | --- | --- | --- | --- | --- | --- | --- | --- |
| < 300 |  | < 300 | < 300 |  |  |  | COc1cccc(Cn2ncc3c(c(Br)n4cc(C)sc34)c2=O)c1 [Cpd 68] | > 1000 |  |
| < 300 |  | < 300 | < 300 |  |  |  | Cn1ccc(Cn2ncc3c4ccc(Cc5cscn5)cc4n(C)c3c2=O)n1 [Cpd 58] | ≤ 1000 |  |
| < 300 |  | < 300 | < 300 |  |  |  | Cc1c2c(=O)n(Cc3cccc(N)n3)ncc2c2sc(Cc3cc[nH]n3)cn12 [Cpd 17] | ≤ 1000 |  |
| < 300 |  | < 300 | < 300 |  |  |  | Cn1ccc(Cn2ncc3c4cc(Cc5cscn5)ncc4n(C)c3c2=O)n1 [Cpd 67] | ≤ 1000 |  |
| > 800 |  | > 800 | > 800 |  |  |  | Cc1c2c(=O)n(Cc3ccn(C)n3)ncc2n2cc(CO)sc12 [Cpd 23] | > 1000 |  |
| > 800 |  | 301 to 800 | < 300 |  |  |  | Cc1c2c(=O)n(Cc3cccc(C#N)c3)ncc2c2sc(Cc3ncco3)cn12 [Cpd 19] | > 1000 |  |
| < 300 |  | < 300 | < 300 |  |  |  | Cc1c2c(=O)n(Cc3ccccn3)ncc2c2sc(Cc3cscn3)cn12 [Cpd 16] | ≤ 1000 |  |
| < 300 |  | < 300 | < 300 |  |  |  | Cc1c2c(=O)n(Cc3cscn3)ncc2c2sc(Cc3cccc4c[nH]nc34)cn12 [Cpd 20] | ≤ 1000 |  |
| > 800 |  | > 800 | > 800 |  |  |  | Cc1cn2c(s1)c(C)c1c(=O)n(Cc3cc[nH]n3)ncc12 [Cpd 22] |  | No Fit |
| < 300 |  | < 300 | < 300 |  |  |  | Cc1c2c(=O)n(Cc3ccc4[nH]ncc4c3)ncc2c2sc(Cc3ccccn3)cn12 [Cpd 18] | ≤ 1000 |  |
| < 300 |  | < 300 | < 300 |  |  |  | Cc1cn2c(C)c3c(=O)n(Cc4ccn(C)n4)ncc3c2s1 [Cpd 21] | ≤ 1000 |  |
| < 300 |  | < 300 | < 300 |  |  |  | Cc1c2c(=O)n(Cc3ccn(C)n3)ncc2c2sc(CO)cn12 [Cpd 14] | ≤ 1000 |  |
| 301 to 800 |  | 301 to 800 | 301 to 800 |  |  |  | COc1cccc(Cn2ncc3c(c(C#CCO)n4cc(C)sc34)c2=O)c1 [Cpd 13] |  | No Fit |
| < 300 |  | < 300 | < 300 |  |  |  | Cc1c2c(=O)n(Cc3ccn(C)n3)ncc2c2sc(Cc3cc[nH]n3)cn12 [Cpd 15] | ≤ 1000 |  |
| < 300 |  | < 300 | < 300 |  |  |  | COc1cccc(Cn2ncc3c(c(C#N)n4cc(C)sc34)c2=O)c1 [Cpd 11] |  | No Fit |
| < 300 |  | < 300 | < 300 |  |  |  | COc1cccc(Cn2ncc3c(c(C)n4cc(C)sc34)c2=O)c1 [Cpd 9] | > 1000 |  |
| < 300 |  | < 300 | < 300 |  |  |  | Cc1c2c(=O)n(Cc3ccn(C)n3)ncc2n2cc(Cc3cc[nH]n3)sc12 [Cpd 24] | ≤ 1000 |  |

— patent US20220127267A1, “THIENO[3,2-B] PYRROLE[3,2-D]PYRIDAZINONE DERIVATIVES AND THEIR USE AS PKM2 DERIVATIVES FOR THE TREATMENT OF CANCER, OBESITY AND DIABETES RELATED DISORDERS” (Agios Pharmaceuticals, Inc., priority 2019, published 2022)
